Results from patent US9884868B2, “TGF-beta inhibitors” (Rigel Pharmaceuticals, Inc., priority 2015, dated 2018).
Like-named read-outs stand apart in the source and are kept apart here.

Biological target: HIS-TGF-βR1 T204D (Homo sapiens (Human), UniProt P36897, T204D)
Assay: HTRF probe displacement assay with HIS-TGF-βR1 T204D
[1] = read-out: TGFbr1 IC50, HTRF probe displacement, 1 nM HIS-TGF-βR1 T204D, 1 hour at room temperature

HIS-TGF-βR1 T204D, sequence (P36897 34-503 T204D): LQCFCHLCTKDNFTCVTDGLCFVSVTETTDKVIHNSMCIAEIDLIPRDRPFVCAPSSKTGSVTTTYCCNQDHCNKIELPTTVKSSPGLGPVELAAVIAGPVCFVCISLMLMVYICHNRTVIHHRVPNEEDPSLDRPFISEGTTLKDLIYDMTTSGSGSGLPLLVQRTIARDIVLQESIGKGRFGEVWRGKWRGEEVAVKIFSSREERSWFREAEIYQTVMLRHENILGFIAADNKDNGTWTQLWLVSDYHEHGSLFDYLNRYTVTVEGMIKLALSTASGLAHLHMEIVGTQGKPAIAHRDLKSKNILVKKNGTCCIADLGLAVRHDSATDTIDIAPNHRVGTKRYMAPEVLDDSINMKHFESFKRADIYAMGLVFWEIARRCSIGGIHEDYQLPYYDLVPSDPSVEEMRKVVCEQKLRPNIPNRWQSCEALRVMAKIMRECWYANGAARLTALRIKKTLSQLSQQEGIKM

Row | Compound | IC50 [1] [nM] | IC50 [nM]
1 | CCC(CO)n1cnc(-c2ccc(F)cc2)c1-c1ccc2ncc(C#N)n2c1 (centres unmarked) [83′, 6-(4-(4-fluorophenyl)-1-(1-hydroxybutan-2-yl)-1H-imidazol-5-yl)imidazo[1,2-a]pyridine-3-carbonitrile] | 189 | 
2 | N#Cc1cnc2ccc(-c3c(-c4ccc(F)cc4)ncn3CCCF)cn12 [84′, 6-(4-(4-fluorophenyl)-1-(3-fluoropropyl)-1H-imidazol-5-yl)imidazo[1,2-a]pyridine-3-carbonitrile] | 121 | 
3 | N#Cc1cnc2ccc(-c3c(-c4ccc(F)cc4)ncn3C(CO)CO)cn12 [85′, 6-(1-(1,3-dihydroxypropan-2-yl)-4-(4-fluorophenyl)-1H-imidazol-5-yl)imidazo[1,2-a]pyridine-3-carbonitrile] | 144 | 
4 | N#Cc1cnc2ccc(-c3c(-c4ccc(F)cc4)ncn3C3CCCC3)cn12 [86′, 6-(1-cyclopentyl-4-(4-fluorophenyl)-1H-imidazol-5-yl)imidazo[1,2-a]pyridine-3-carbonitrile] | 94.7 | 
5 | CCCn1cnc(-c2ccc(F)cc2)c1-c1ccc2ncc(C#N)n2c1 [87′, 6-(4-(4-fluorophenyl)-1-propyl-1H-imidazol-5-yl)imidazo[1,2-a]pyridine-3-carbonitrile] | 40.3 | 
6 | CC(C1CC1)n1cnc(-c2ccc(F)cc2)c1-c1ccc2ncc(C#N)n2c1 (centres unmarked) [88′, 6-(1-(1-cyclopropylethyl)-4-(4-fluorophenyl)-1H-imidazol-5-yl)imidazo[1,2-a]pyridine-3-carbonitrile] | 19.3 | 
7 | C[C@H](O)Cn1cnc(-c2ccc(F)cc2)c1-c1ccc2ncc(C#N)n2c1 [89′, (S)-6-(4-(4-fluorophenyl)-1-(2-hydroxypropyl)-1H-imidazol-5-yl)imidazo[1,2-a]pyridine-3-carbonitrile] | 127 | 
8 | CC(C)(O)Cn1cnc(-c2ccc(F)cc2)c1-c1ccc2ncc(C#N)n2c1 [90′, 6-(4-(4-fluorophenyl)-1-(2-hydroxy-2-methylpropyl)-1H-imidazol-5-yl)imidazo[1,2-a]pyridine-3-carbonitrile] | 107 | 
9 | CCOCCn1cnc(-c2ccc(F)cc2)c1-c1ccc2ncc(C#N)n2c1 [91′, 6-(1-(2-ethoxyethyl)-4-(4-fluorophenyl)-1H-imidazol-5-yl)imidazo[1,2-a]pyridine-3-carbonitrile] | 18.8 | 
10 | N#Cc1cnc2ccc(-c3c(-c4ccc(F)cc4)ncn3C[C@H](O)CO)cn12 [92′, (S)-6-(1-(2,3-dihydroxypropyl)-4-(4-fluorophenyl)-1H-imidazol-5-yl)imidazo[1,2-a]pyridine-3-carbonitrile] | 266 | 
11 | CCn1cnc(-c2ccc(F)c(Cl)c2)c1-c1ccc2ncc(C#N)n2c1 [94′, 6-(4-(3-chloro-4-fluorophenyl)-1-ethyl-1H-imidazol-5-yl)imidazo[1,2-a]pyridine-3-carbonitrile] | 13.1 | 
12 | N#Cc1cnc2ccc(-c3c(-c4ccc(F)c(Cl)c4)ncn3CC3CC3)cn12 [96′, 6-(4-(3-chloro-4-fluorophenyl)-1-(cyclopropylmethyl)-1H-imidazol-5-yl)imidazo[1,2-a]pyridine-3-carbonitrile] | 94.4 | 
13 | N#Cc1cnc2ccc(-c3c(-c4ccc(F)c(Cl)c4)ncn3C3COC3)cn12 [97′, 6-(4-(3-chloro-4-fluorophenyl)-1-(oxetan-3-yl)-1H-imidazol-5-yl)imidazo[1,2-a]pyridine-3-carbonitrile] | 140 | 
14 | Cn1cnc(-c2ccc(F)c(Cl)c2)c1-c1ccc2ncc(C#N)n2c1 [98′, 6-(4-(3-chloro-4-fluorophenyl)-1-methyl-1H-imidazol-5-yl)imidazo[1,2-a]pyridine-3-carbonitrile] | 17.3 | 
15 | N#Cc1cnc2ccc(-c3c(-c4ccc(F)c(Cl)c4)ncn3CCO)cn12 [100′, 6-(4-(3-chloro-4-fluorophenyl)-1-(2-hydroxyethyl)-1H-imidazol-5-yl)imidazo[1,2-a]pyridine-3-carbonitrile] | 11.6 | 
16 | N#Cc1cnc2ccc(-c3c(-c4ccc(F)c(Cl)c4)ncn3CCCF)cn12 [101′, 6-(4-(3-chloro-4-fluorophenyl)-1-(3-fluoropropyl)-1H-imidazol-5-yl)imidazo[1,2-a]pyridine-3-carbonitrile] | 23.2 | 
17 | NC(=O)c1cnc2ccc(-c3c(-c4ccc(F)cc4)ncn3C3CC(F)(F)C3)nn12 [106′, 6-(1-(3,3-difluorocyclobutyl)-4-(4-fluorophenyl)-1H-imidazol-5-yl)imidazo[1,2-b]pyridazine-3-carboxamide] | 6.1 | 
18 | NC(=O)c1cnc2ccc(-c3c(-c4ccc(F)cc4)ncn3C3CC3)nn12 [109′, 6-(1-cyclopropyl-4-(4-fluorophenyl)-1H-imidazol-5-yl)imidazo[1,2-b]pyridazine-3-carboxamide] | 2.5 | 
19 | NC(=O)c1cnc2ccc(-c3c(-c4ccc(F)cc4)ncn3CCF)nn12 [111′, 6-(1-(2-fluoroethyl)-4-(4-fluorophenyl)-1H-imidazol-5-yl)imidazo[1,2-b]pyridazine-3-carboxamide] | 0.8 | 

Row | Compound | IC50 [1] [nM] | IC50 [nM]
20 | CCn1cnc(-c2ccc(F)cc2)c1-c1ccc2ncc(C(N)=O)n2n1 [112′, 6-(1-ethyl-4-(4-fluorophenyl)-1H-imidazol-5-yl)imidazo[1,2-b]pyridazine-3-carboxamide] | 0.7 | 
21 | NC(=O)c1cnc2ccc(-c3c(-c4ccc(F)c(Cl)c4)ncn3CC(F)F)nn12 [113′, 6-(4-(3-chloro-4-fluorophenyl)-1-(2,2-difluoroethyl)-1H-imidazol-5-yl)imidazo[1,2-b]pyridazine-3-carboxamide] | 0.9 | 
22 | NC(=O)c1cnc2ccc(-c3c(-c4ccc(F)c(Cl)c4)ncn3CCF)nn12 [114′, 6-(4-(3-chloro-4-fluorophenyl)-1-(2-fluoroethyl)-1H-imidazol-5-yl)imidazo[1,2-b]pyridazine-3-carboxamide] | 1.3 | 
23 | CC(C)n1cnc(-c2ccc(F)c(Cl)c2)c1-c1ccc2ncc(C(N)=O)n2n1 [116′, 6-(4-(3-chloro-4-fluorophenyl)-1-isopropyl-1H-imidazol-5-yl)imidazo[1,2-b]pyridazine-3-carboxamide] | 0.9 | 
24 | CCn1cnc(-c2ccc(F)c(Cl)c2)c1-c1ccc2ncc(C(N)=O)n2n1 [117′, 6-(4-(3-chloro-4-fluorophenyl)-1-ethyl-1H-imidazol-5-yl)imidazo[1,2-b]pyridazine-3-carboxamide] | 0.6 | 
25 | CCn1cnc(-c2ccc(F)c(Cl)c2)c1-c1ccc2ncc(C(N)=O)n2c1 [119′, 6-(4-(3-chloro-4-fluorophenyl)-1-ethyl-1H-imidazol-5-yl)imidazo[1,2-a]pyridine-3-carboxamide] | 0.4 | 
26 | CC(C)OCCn1cnc(-c2ccc(F)cc2)c1-c1ccc2ncc(C(N)=O)n2n1 [124′, 6-(4-(4-fluorophenyl)-1-(2-isopropoxyethyl)-1H-imidazol-5-yl)imidazo[1,2-b]pyridazine-3-carboxamide] | 2.5 | 
27 | CC[C@@H](CO)n1cnc(-c2ccc(F)cc2)c1-c1ccc2ncc(C(N)=O)n2n1 [125′, (S)-6-(4-(4-fluorophenyl)-1-(1-hydroxybutan-2-yl)-1H-imidazol-5-yl)imidazo[1,2-b]pyridazine-3-carboxamide] | 2.6 | 
28 | NC(=O)c1cnc2ccc(-c3c(-c4ccc(F)cc4)ncn3C3COC3)nn12 [126′, 6-(4-(4-fluorophenyl)-1-(oxetan-3-yl)-1H-imidazol-5-yl)imidazo[1,2-b]pyridazine-3-carboxamide] | 7.4 | 
29 | CC[C@@H](CF)n1cnc(-c2ccc(F)cc2)c1-c1ccc2ncc(C(N)=O)n2n1 [128′, (S)-6-(1-(1-fluorobutan-2-yl)-4-(4-fluorophenyl)-1H-imidazol-5-yl)imidazo[1,2-b]pyridazine-3-carboxamide] | 1.5 | 
30 | NC(=O)c1cnc2ccc(-c3c(-c4ccc(F)cc4)ncn3C(CO)CO)nn12 [129′, 6-(1-(1,3-dihydroxypropan-2-yl)-4-(4-fluorophenyl)-1H-imidazol-5-yl)imidazo[1,2-b]pyridazine-3-carboxamide] | 5.1 | 
31 | NC(=O)c1cnc2ccc(-c3c(-c4ccc(F)cc4)ncn3CCCO)nn12 [132′, 6-(4-(4-fluorophenyl)-1-(3-hydroxypropyl)-1H-imidazol-5-yl)imidazo[1,2-b]pyridazine-3-carboxamide] | 4.7 | 
32 | NC(=O)c1cnc2ccc(-c3c(-c4ccc(F)cc4)ncn3CCO)nn12 [133′, 6-(4-(4-fluorophenyl)-1-(2-hydroxyethyl)-1H-imidazol-5-yl)imidazo[1,2-b]pyridazine-3-carboxamide] | 3.1 | 
33 | Cn1cnc(-c2ccc(F)cc2)c1-c1ccc2ncc(C(N)=O)n2n1 [134′, 6-(4-(4-fluorophenyl)-1-methyl-1H-imidazol-5-yl)imidazo[1,2-b]pyridazine-3-carboxamide] | 3.9 | 
34 | CC(C)n1cnc(-c2ccc(F)cc2)c1-c1ccc2ncc(C(N)=O)n2n1 [135′, 6-(4-(4-fluorophenyl)-1-isopropyl-1H-imidazol-5-yl)imidazo[1,2-b]pyridazine-3-carboxamide] | 0.7 | 
35 | NC(=O)c1cnc2ccc(-c3c(-c4ccc(F)cc4)ncn3C34CC(C3)C4)nn12 [136′, 6-(1-(bicyclo[1.1.1]pentan-1-yl)-4-(4-fluorophenyl)-1H-imidazol-5-yl)imidazo[1,2-b]pyridazine-3-carboxamide] | 12.4 | 
36 | CC(F)(F)Cn1cnc(-c2ccc(F)cc2)c1-c1ccc2ncc(C(N)=O)n2n1 [137′, 6-(1-(2,2-difluoropropyl)-4-(4-fluorophenyl)-1H-imidazol-5-yl)imidazo[1,2-b]pyridazine-3-carboxamide] | 0.6 | 
37 | NC(=O)c1cnc2ccc(-c3c(-c4ccc(F)c(Cl)c4)ncn3CCO)nn12 [138′, 6-(4-(3-chloro-4-fluorophenyl)-1-(2-hydroxyethyl)-1H-imidazol-5-yl)imidazo[1,2-b]pyridazine-3-carboxamide] | 0.7 | 
38 | NC(=O)c1cnc2ccc(-c3c(-c4ccc(F)c(Cl)c4)ncn3[C@H]3C[C@@H](O)C3)nn12 [140′, 6-(4-(3-chloro-4-fluorophenyl)-1-((1s,3s)-3-hydroxycyclobutyl)-1H-imidazol-5-yl)imidazo[1,2-b]pyridazine-3-carboxamide] |  | 2.8
